Reference: publication PMC11396129, “Oxindole–benzothiazole hybrids as CDK2 inhibitors and anticancer agents: design, synthesis and biological evaluation” (BMC Chemistry, 2024)

Key:
Format in all cases: cell-based, human
[1] = tested on: MDA-MB-468; experiment: NCI 60 panel growth inhibition (SRB), breast cancer; settings: MDA-MB-468, 10 μM
Description: (§1) Screening of cytotoxic activity against a panel of sixty human tumor cell lines The selected compounds by NCI were evaluated for their anticancer activity in a two- stage process. […] Then, the output from the single dose screen is reported as a mean graph. […] Assay protocol. […] For a typical screening experiment, cells are inoculated into 96 well microtiter plates in 100 µL at plating densities ranging from 5000 to 40,000 cells/well depending on the doubling time of individual cell lines. […] After 24 h, two plates of each cell line are fixed in situ with TCA, to represent a measurement of the cell population for each cell line at the time of drug addition (Tz). The experimental drugs are solubilized in dimethyl sulfoxide at 400-fold the desired final maximum test concentration and stored frozen prior to use. At the time of drug addition, an aliquot of frozen concentrate is thawed and diluted to twice the desired final maximum test concentration with complete medium containing 50 µg/mL gentamicin. Additional four, 10-fold or ½ log serial dilutions are made to provide a total of five drug concentrations plus control. […] For adherent cells, the assay is terminated by the addition of cold TCA. […] The supernatant is discarded, and the plates are washed five times with tap water and air dried. […] Using the seven absorbance measurements [time zero, (Tz), control growth, (C), and test growth in the presence of drug at the five concentration levels (Ti)], the percentage growth is calculated at each of the drug concentrations levels. Percentage growth inhibition is calculated as: [(Ti Tz)/(C–Tz)] x 100 for concentrations for which Ti>/=Tz and [(Ti-Tz)/Tz] x 100 for concentrations for which Ti < Tz. Three dose response parameters are calculated for each experimental agent. […] The drug concentration resulting in total growth inhibition (TGI) is calculated from Ti = Tz. […] Values are calculated for each of these three parameters if the level of activity is reached; however, if the effect is not reached or is exceeded, the value for that parameter is expressed as greater or less than the maximum or minimum concentration tested.

[2] = tested on: HS 578T; experiment: as above; settings: 10 μM
Description: as §1

[3] = tested on: T-47D; experiment: as above; settings: 10 μM
Description: as §1

[4] = tested on: MDA-MB-231/ATCC; experiment: as above; settings: 10 μM
Description: as §1

[5] = tested on: MCF7; experiment: as above; settings: MCF7, 10 μM
Description: as §1

[6] = tested on: BT-549; experiment: as above; settings: BT-549, 10 μM
Description: as §1

[7] = tested on: HCT-15; experiment: NCI 60 panel growth inhibition (SRB), colon cancer; settings: HCT-15, 10 μM
Description: as §1

[8] = tested on: HCT-116; experiment: NCI 60 panel growth inhibition (SRB), colon cancer; settings: HCT-116, 10 μM
Description: as §1

[9] = tested on: COLO 205; experiment: NCI 60 panel growth inhibition (SRB), colon cancer; settings: COLO 205, 10 μM
Description: as §1

[10] = tested on: SW-620; experiment: NCI 60 panel growth inhibition (SRB), colon cancer; settings: SW-620, 10 μM
Description: as §1

[11] = tested on: HCC-2998; experiment: NCI 60 panel growth inhibition (SRB), colon cancer; settings: HCC-2998, 10 μM
Description: as §1

[12] = tested on: KM12; experiment: NCI 60 panel growth inhibition (SRB), colon cancer; settings: KM12, 10 μM
Description: as §1

[13] = tested on: UACC-257; experiment: NCI 60 panel growth inhibition (SRB), melanoma; settings: UACC-257, 10 μM
Description: as §1

[14] = tested on: SK-MEL-28; experiment: NCI 60 panel growth inhibition (SRB), melanoma; settings: SK-MEL-28, 10 μM
Description: as §1

[15] = tested on: MALME-3M; experiment: NCI 60 panel growth inhibition (SRB), melanoma; settings: 10 μM
Description: as §1

[16] = tested on: LOX IMVI; experiment: NCI 60 panel growth inhibition (SRB), melanoma; settings: 10 μM
Description: as §1

[17] = tested on: M14; experiment: NCI 60 panel growth inhibition (SRB), melanoma; settings: M14, 10 μM
Description: as §1

[18] = tested on: SK-MEL-5; experiment: NCI 60 panel growth inhibition (SRB), melanoma; settings: SK-MEL-5, 10 μM
Description: as §1

[19] = tested on: MDA-MB-435; experiment: NCI 60 panel growth inhibition (SRB), melanoma; settings: MDA-MB-435, 10 μM
Description: as §1

[20] = tested on: UACC-62; experiment: NCI 60 panel growth inhibition (SRB), melanoma; settings: UACC-62, 10 μM
Description: as §1

[21] = tested on: A498; experiment: NCI 60 panel growth inhibition (SRB), renal cancer; settings: A498, 10 μM
Description: as §1

[22] = tested on: SN12C; experiment: NCI 60 panel growth inhibition (SRB), renal cancer; settings: 10 μM
Description: as §1

[23] = tested on: ACHN; experiment: NCI 60 panel growth inhibition (SRB), renal cancer; settings: 10 μM
Description: as §1

[24] = tested on: CAKI-1; experiment: NCI 60 panel growth inhibition (SRB), renal cancer; settings: CAKI-1, 10 μM
Description: as §1

[25] = tested on: DU-145; experiment: NCI 60 panel growth inhibition (SRB), prostate cancer; settings: DU-145, 10 μM
Description: as §1

[26] = tested on: PC-3; experiment: as above; settings: PC-3, 10 μM
Description: as §1

[27] = tested on: HOP-62; experiment: NCI 60 panel growth inhibition (SRB), non-small cell lung cancer; settings: HOP-62, 10 μM
Description: as §1

[28] = tested on: NCI-H23; experiment: as above; settings: NCI-H23, 10 μM
Description: as §1

[29] = tested on: NCI-H226; experiment: as above; settings: NCI-H226, 10 μM
Description: as §1

[30] = tested on: NCI-H460; experiment: as above; settings: NCI-H460, 10 μM
Description: as §1

[31] = tested on: NCI-H522; experiment: as above; settings: NCI-H522, 10 μM
Description: as §1

[32] = tested on: HOP-92; experiment: as above; settings: HOP-92, 10 μM
Description: as §1

[33] = tested on: A549/ATCC; experiment: as above; settings: 10 μM
Description: as §1

[34] = tested on: EKVX; experiment: as above; settings: 10 μM
Description: as §1

[35] = tested on: NCI-H322M; experiment: as above; settings: 10 μM
Description: as §1

`O=C(COc1ccccc1-c1nc2ccccc2s1)NN=C1C(=O)Nc2ccccc21` [Compound 9a, 2-(2-(Benzo[d]thiazol-2-yl)phenoxy)-N′-(2-oxoindolin-3-ylidene)acetohydrazide] was tested, and the GI% [1] was “– (GI% < 5%)”, the GI% [2] was 5.85% and the GI% [3] was 12.02%. The GI% [4] was “– (GI% < 5%)”, the GI% [5] was 25.11% and the GI% [6] was “– (GI% < 5%)”. The GI% [7] was 8.99%, the GI% [8] was “– (GI% < 5%)” and the GI% [9] was “– (GI% < 5%)”. The GI% [10] was “– (GI% < 5%)”, the GI% [11] was “– (GI% < 5%)” and the GI% [12] was 6.23%. For the same molecule, the GI% [13] was 6.77%, the GI% [14] was “– (GI% < 5%)” and the GI% [15] was “– (GI% < 5%)”. The GI% [16] was “– (GI% < 5%)”, the GI% [17] was “– (GI% < 5%)” and the GI% [18] was 13.43%. The GI% [19] was “– (GI% < 5%)”, the GI% [20] was 13.82% and the GI% [21] was “– (GI% < 5%)”. For the same molecule, the GI% [22] was 7.64%, the GI% [23] was “– (GI% < 5%)” and the GI% [24] was 22.46%. For the same molecule, the GI% [25] was 6.07%, the GI% [26] was 19.26% and the GI% [27] was “– (GI% < 5%)”. For the same molecule, the GI% [28] was 6.36%, the GI% [29] was 23.61% and the GI% [30] was “– (GI% < 5%)”. For the same molecule, the GI% [31] was “– (GI% < 5%)”, the GI% [32] was 6.37% and the GI% [33] was 11.63%. For the same molecule, the GI% [34] was 37.48% and the GI% [35] was “– (GI% < 5%)”.
